From PubChem BioAssay AID2060505 (Molecular Pharmacology Branch, DTP, NCI, 2025)
Where “and” joins values, the source holds several entries; their conditions need not be identical. Equal entries are not always repeated.

Test system: 633275-114-R-J1-PDC complex spheroids, viability
Test: Anticancer human tumor 633275-114-R-J1-PDC patient-derived endometrial adenocarcinoma cell line growth inhibition [GQUAD]
Conditions: for viability, T/C: stronger effect = lower value; active means viability on the fitted dose curve at most 10% of control; inactive means the rest
Excerpt: DNA G-quadruplex Stabilizer Agents in Combinations in Complex Spheroids
A high-throughput screen of multi-cell type tumor spheroids was designed to identify active combinations of DNA G-quadruplex stabilizer agents and targeted small molecules. Complex spheroids include a stromal component modeled by human endothelial cells (HUVEC) and fibroblasts modeled by human mesenchymal stem cells (MSCs). The concentration ranges selected for each drug and investigational agent were based upon clinically achievable concentrations if the clinical Cmax of the agent was known.
Compounds. The drugs and investigational agents: pidnarulex (CX-5461; NSC782164), APTO-253 (NSC789042), BRACO-19 (NSC847499), peposertib (NSC802822), ceralasertib (NSC780249), elimusertib (NSC800525), camonsertib (NSC841442), AZD-1390 (NSC803789), olaparib (NSC753686), talazoparib (NSC767125), ART-558 (NSC835418), sotorasib (NSC818433), MRTX-1133 (NSC836407), SN-38 (NSC673596), topotecan (NSC609699), etoposide (NSC141540), doxorubicin (NSC123127), gemcitabine (NSC613327), 5-fluorouracil (NSC19893), paclitaxel (NSC125973), vemurafenib (NSC761431), panobinostat (NSC761190), R-306465 (JNJ-16241199; NSC773264), adavosertib (NSC754352), TP-3654 (NSC805149), carboplatin (NSC241240), KSQ-4279 (NSC840948), and staurosporine (NSC755774) were obtained from the National Cancer Institute (NCI) Developmental Therapeutics Program Chemical Repository (34). The FDA-approved anticancer drug set is available from the NCI Developmental Therapeutics Program. […] The stock solutions were prepared in dimethyl sulfoxide (DMSO, Sigma-Aldrich, St. Louis, MO, cat. D2650) at 800-fold the tested concentration and stored at -70 degrees C prior to their use. All drugs and investigational agents were tested over a range starting from a high concentration at or near the clinical Cmax and decreasing in half-log increments. If the clinical Cmax for an agent had not been determined, the highest concentration tested was 10 microM.
2.3 Cell Culture. All cells were maintained in an incubator at 37 degrees C and 5% CO2 with 95% humidity. The PDC lines were cultured according to standard operating procedures established by the NCI PDMR. All PDCs were thawed and cultured in Matrigel-coated flasks prepared with a working solution of 1X Ham's F-12 nutrient mix, without supplementation (Invitrogen, cat. 11765054), 100 U/mL penicillin-streptomycin (Invitrogen, cat. 15140122), and 2.5% Matrigel (Corning Inc., cat. 354248) for the first three passages. The 857933-349-R-J2-PDC line was cultured in 6C/Colon 1B media, which includes advanced DMEM/F-12 (Thermo Fisher Scientific, cat. 12634028), 10 mM HEPES (Thermo Fisher Scientific, cat. 15630080), 1X GlutaMAX supplement (Thermo Fisher Scientific, cat. 35050061), 0.1 mg/mL primocin (InvivoGen, cat. ant-pm-2), 10% defined fetal bovine serum, heat inactivated (HyClone Laboratories Inc., cat. SH30070.03HI), 50% L-WRN conditioned media (ATCC, cat. CRL-3276), 1.25 mM N-Acetyl-L-cysteine (Sigma-Aldrich, cat. A9165), 10 mM nicotinamide (Sigma-Aldrich, cat. N0636), 1X B-27 supplement (Thermo Fisher Scientific, cat. 17504044), 1X N-2 supplement (Thermo Fisher Scientific, cat. 17502048), 10 microM Y-27632 dihydrochloride (Tocris Bioscience, cat. 1254), and 50 ng/mL human EGF recombinant protein (Thermo Fisher Scientific, cat. PHG0311). The 485176-168-R4-J1-PDC line was cultured in Panc media, which includes all 6C/Colon 1B media components plus 100 ng/mL human FGF-10 (Thermo Fisher Scientific, cat. 100-26), 500 nM SB-431542 (Selleckchem, cat. S1067), and gastrin (Tocris, cat. 3006).
[…]

[1] = compound alone, run of 03/18/2024
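Further: spheroids exposed to the agents for seven days.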
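Wherever viability, T/C is given: percent of DMSO vehicle control viability which is 100%.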

COc1cc(C2c3cc4c(cc3C(OC3OC5COC(C)OC5C(O)C3O)C3COC(=O)C23)OCO4)cc(OC)c1O (configuration not stated)
inactive: viability, T/C (compound 0.0316 µM) 90.9% and 82.6% and 84.5% | viability, T/C (compound 0.1 µM) 71.1% and 64.9% and 66.1% | viability, T/C (compound 0.316 µM) 50.1% and 51.4% and 46.9% | viability, T/C (compound 1 µM) 44.4% and 42.1% and 49.9% | viability, T/C (compound 3.16 µM) 38.2% (2×) and 36.1% | viability, T/C (compound 10 µM) 32.7% and 30.8% and 28.3%
442 nM and 384 nM and 466 nM: IC50 (curve of compound)

COc1ccc([C@@H](O)c2cc(-c3ncnc4cc(N5CCOCC5)ccc34)c(F)cc2Cl)nn1
4050 nM and 4540 nM and 3480 nM: IC50 (curve of compound)
inactive: viability, T/C (compound 0.0316 µM) 94.5% and 95% and 93.8% | viability, T/C (compound 0.1 µM) 98.8% and 89.7% and 92.3% | viability, T/C (compound 0.316 µM) 85.5% and 89.3% and 86.5% | viability, T/C (compound 1 µM) 73.6% and 74.7% and 67.5% | viability, T/C (compound 3.16 µM) 54.6% and 53.4% and 53.7% | viability, T/C (compound 10 µM) 35.3% and 42.5% and 31.2%

COc1cccc2c1C(=O)c1c(O)c3c(c(O)c1C2=O)CC(O)(C(=O)CO)CC3OC1CC(N)C(O)C(C)O1 (configuration not stated)
inactive: viability, T/C (compound 0.0316 µM) 62% and 55.6% and 60.7% | viability, T/C (compound 0.1 µM) 45.2% and 39% and 44.2% | viability, T/C (compound 0.316 µM) 35.7% and 31.5% and 33% | viability, T/C (compound 1 µM) 21.9% and 16.8% and 22.1%
active: viability, T/C (compound 3.16 µM) 1.91% and 1.16% and 1.41% | viability, T/C (compound 10 µM) 2% and 1.77% and 1.5%
87.6 nM and 48.1 nM and 74.7 nM: IC50 (curve of compound)

COc1ncnc(C2CC2)c1-c1ncc2cnn(Cc3ccc(-c4nc(C(F)(F)F)cn4C(C)C)cc3)c2n1
inactive: viability, T/C (compound 0.0316 µM) 91.5% and 91.7% and 98.3% | viability, T/C (compound 0.1 µM) 95.1% and 89.5% and 100% | viability, T/C (compound 0.316 µM) 86.6% and 85.3% and 100% | viability, T/C (compound 1 µM) 90.3% and 101% and 82.7% | viability, T/C (compound 3.16 µM) 98% and 106% and 95.6% | viability, T/C (compound 10 µM) 85% and 87.1% and 84.9%
> 10000 nM: IC50 (curve of compound)

Cc1[nH]c2ccc(F)cc2c1-c1nc2c3cccnc3c3ncccc3c2[nH]1
inactive: viability, T/C (compound 0.0316 µM) 104% [middle of 12 runs] | viability, T/C (compound 0.1 µM) 102% [middle of 12 runs] | viability, T/C (compound 0.316 µM) 99.1% [middle of 12 runs] | viability, T/C (compound 1 µM) 92.6% [middle of 12 runs] | viability, T/C (compound 3.16 µM) 73% [middle of 12 runs] | viability, T/C (compound 10 µM) 72.2% [middle of 12 runs]
> 10000 nM: IC50 [1] | IC50 (compound alone, run of 03/26/2024)

Cc1[nH]c2ccccc2c1CCNCc1ccc(/C=C/C(=O)NO)cc1
61.3 nM and 59.6 nM and 61.1 nM: IC50 (curve of compound)
inactive: viability, T/C (compound 0.000999 µM) 101% and 103% and 102% | viability, T/C (compound 0.00316 µM) 85.1% and 98.6% and 81.7% | viability, T/C (compound 0.00999 µM) 77.8% and 64.2% and 81.9% | viability, T/C (compound 0.0316 µM) 61.1% and 69.2% and 57.3% | viability, T/C (compound 0.0999 µM) 43% and 39.6% and 43.9% | viability, T/C (compound 0.316 µM) 18.1% and 22.3% and 22.9%

Cc1cccc(N(C)C(=O)C2C(O)CCN2c2nc(C)cc(C(F)(F)F)c2C#N)c1 (configuration not stated)
inactive: viability, T/C (compound 0.0316 µM) 104% and 106% and 102% | viability, T/C (compound 0.1 µM) 87.3% and 93.7% and 107% | viability, T/C (compound 0.316 µM) 96.6% and 105% and 93% | viability, T/C (compound 1 µM) 99.8% and 93.9% and 87.2% | viability, T/C (compound 3.16 µM) 104% and 103% and 98.8% | viability, T/C (compound 10 µM) 96.2% and 95.4% and 92.5%
> 10000 nM: IC50 (curve of compound)

Cc1cnc(CNC(=O)c2c(=O)c3ccc(N4CCCN(C)CC4)nc3n3c2sc2ccccc23)cn1
187 nM [middle of 12 runs]: IC50 [1]
inactive: viability, T/C (compound 0.0316 µM) 66.5% [middle of 12 runs] | viability, T/C (compound 0.1 µM) 51.1% [middle of 12 runs] | viability, T/C (compound 0.316 µM) 46.2% [middle of 11 runs] | viability, T/C (compound 1 µM) 41.8% [middle of 12 runs] | viability, T/C (compound 3.16 µM) 39% [middle of 12 runs] | viability, T/C (compound 10 µM) 33.2% [middle of 12 runs]

Cn1ncnc1[C@H]1c2n[nH]c(=O)c3cc(F)cc(c23)N[C@@H]1c1ccc(F)cc1
> 316 nM: IC50 (curve of compound)
inactive: viability, T/C (compound 0.000999 µM) 101% and 100% and 95.7% | viability, T/C (compound 0.00316 µM) 97.5% and 87.7% and 88.7% | viability, T/C (compound 0.00999 µM) 87.6% and 88.2% and 102% | viability, T/C (compound 0.0316 µM) 79% (2×) and 83.2% | viability, T/C (compound 0.0999 µM) 69.5% and 71% and 65.5% | viability, T/C (compound 0.316 µM) 56.5% and 57.2% and 61.5%

Nc1ccn(C2OC(CO)C(O)C2(F)F)c(=O)n1 (configuration not stated)
< 31.6 nM: IC50 (curve of compound)
inactive: viability, T/C (compound 0.0316 µM) 30.6% and 26.5% and 26.6% | viability, T/C (compound 0.1 µM) 24.7% and 22.3% and 23.2% | viability, T/C (compound 0.316 µM) 28.7% and 23.9% and 24.1% | viability, T/C (compound 1 µM) 25.4% and 23.2% and 21.9% | viability, T/C (compound 3.16 µM) 27.3% and 23.6% and 20.7% | viability, T/C (compound 10 µM) 21.7% and 17.1% and 18.9%

O=C(NO)c1cnc(N2CCN(S(=O)(=O)c3ccc4ccccc4c3)CC2)nc1
177 nM and 198 nM and 252 nM: IC50 (curve of compound)
inactive: viability, T/C (compound 0.0316 µM) 75.3% and 69.1% and 84.1% | viability, T/C (compound 0.1 µM) 61.1% and 65.8% and 72.9% | viability, T/C (compound 0.316 µM) 38.8% and 38.6% and 43.8% | viability, T/C (compound 1 µM) 21.8% (2×) and 19.6% | viability, T/C (compound 3.16 µM) 12.8% and 12.7% and 13.8%
active: viability, T/C (compound 10 µM) 5.19% and 5.98% and 4.22%

O=C(c1cc(Cc2n[nH]c(=O)c3ccccc23)ccc1F)N1CCN(C(=O)C2CC2)CC1
> 10000 nM: IC50 (curve of compound)
inactive: viability, T/C (compound 0.0316 µM) 101% and 96.1% and 100% | viability, T/C (compound 0.1 µM) 94.1% and 84.6% and 94% | viability, T/C (compound 0.316 µM) 86.2% and 95.4% and 96.1% | viability, T/C (compound 1 µM) 85.2% and 91.4% and 78.4% | viability, T/C (compound 3.16 µM) 74.8% and 71.8% and 75.2% | viability, T/C (compound 10 µM) 58.2% and 52.5% and 61.2%

O=c1[nH]cc(F)c(=O)[nH]1
> 10000 nM: IC50 (curve of compound)
inactive: viability, T/C (compound 0.0316 µM) 103% (2×) and 98.4% | viability, T/C (compound 0.1 µM) 90.1% and 99.8% and 94.7% | viability, T/C (compound 0.316 µM) 91.3% and 105% and 101% | viability, T/C (compound 1 µM) 95.9% and 91.8% and 94.2% | viability, T/C (compound 3.16 µM) 89.3% and 98.9% and 91.8% | viability, T/C (compound 10 µM) 77.6% and 72% and 67.4%
